US20230276803A1, “A PESTICIDALLY ACTIVE MIXTURE COMPRISING THIETANYLOXY COMPOUND, OXIDES OR SALTS THEREOF” (PI INDUSTRIES LTD., priority 2020, published 2023)
Where two headings read alike, the source gives them in different places.

Columns and labels:
Type in all cases: in vivo
Plutella xylostella = assay: Leaf dip method (cabbage) against Plutella xylostella (Example C); conditions: 72 h
From the text: (§1) In which E represents the expected percentage of inhibition of the pests for the combination of two insecticides or one insecticide and one fungicide at defined doses (for example equal to x and y respectively), x is the percentage of inhibition observed for the pest/disease by the compound (1) at a given dose (equal to x), y is the percentage of inhibition observed for the pest/disease by the compound (2) or (3) at a defined dose (equal to y). When the percentage of inhibition observed for the combination is greater than E, there is a synergistic effect.
The leaf dip method was used, wherein the required quantity of the compound or respective compound combinations were weighed and dissolved in a test solution prepared in tubes. The tubes were put on a vortex at 2000 rpm for 90 min for proper mixing and then diluted with a 0.01% Triton-X solution to the desired test concentration. Cabbage leaves were dipped into the solution for 10 seconds, shade dried for 20 min and then transferred to single cells of bioassay trays. A single second instar larva was released into each cell and the tray was covered with a lid. The bio-assay trays were kept under laboratory conditions at a temperature of 25° C. and relative humidity of 70%. Observations on dead, moribund and live larvae were recorded 72 h after the release. Percent mortality was calculated by combining dead and moribund larvae and comparing the result with the one of the untreated control. The results are shown for compound of formula (I-1) in Table C.

Helicoverpa armigera = assay: Diet incorporation method against Helicoverpa armigera (Example A); conditions: 96 h
From the text: as §1
The diet incorporation method was used, in which semi-synthetic diet was incorporated into the test solutions consisting either of the single compounds or respective compound combinations, when the temperature was approximately 50° C. in the bio-assay containers, then stirred thoroughly for proper mixing and allowed to cool for 30 min. The solidified diet was cut into equal pieces, and then each piece was transferred into one cell of a bio-assay tray. A single starved third instar larva was released into each of these cells of the bio-assay trays and the tray was covered with a lid. The bio-assay trays were kept under laboratory conditions at a temperature of 25° C. and relative humidity of 70%. Observations on dead, moribund and live larvae were recorded 96 h after the release of the larvae. Percent mortality was calculated by combining dead and moribund larvae and comparing the result to the one of the untreated control. The results are shown for the compound of formula (I-1) in Table A.

Phakopsora pachyrhizi = assay: Preventive glasshouse test against Phakopsora pachyrhizi in soybean (Example H); conditions: preventive spray
From the text: as §1
The single compounds or the respective compound combinations were dissolved in 2% dimethyl sulfoxide/acetone and then mixed with water containing an emulsifier to a calibrated spray volume of 50 ml. The test solutions were poured into spray bottles for further applications.
To test the preventive activity of compounds, healthy young Soybean plants, raised in the greenhouse, were sprayed with the active compound preparation at the stated application rates inside the spray cabinets using hollow cone nozzles. One day after treatment, the plants were inoculated with a suspension containing 2×10^5 Phakopsora pachyrhizi conidia. The inoculated plants were then kept in a greenhouse chamber at a temperature of 22-24° C. and 80-90% relative humidity for disease expression.
A visual assessment of the performance of the single compounds and respective compound combinations was carried out by rating the disease severity (0-100% scale) on treated plants 3, 7, 10 and 15 days after application. Efficacy (% control) of the compounds was calculated by comparing the disease rating in the treatment with the one of the untreated control. The compounds were also assessed for their plant compatibility by recording symptoms like necrosis, chlorosis and stunting. The results have been described for the compound of formula (I-1) in Table H.

[1] = tested on: Parastagonospora nodorum/Septoria nodorum/Stagnospora nodorum; assay: Preventive glasshouse test against Septoria nodorum in wheat (Example J); conditions: preventive spray
From the text: as §1
(§2) The single compounds or respective compound combinations were dissolved in 2% dimethyl sulfoxide/acetone and then mixed with water containing emulsifier to a calibrated spray volume of 50 mL. The test solutions were poured into spray bottles for further applications.
[…] One day after treatment, the plants were inoculated with a spore suspension containing 2.8×10^6 Stagnospora nodorum inoculum.
The inoculated plants were then kept in a greenhouse chamber at 22-25° C. temperature and 90-100% relative humidity for disease expression.
(§3) A visual assessment of the performance of the single compounds or compound combinations was carried out by rating the disease severity (0-100% scale) on treated plants 3, 7, 10 and 15 days after application. Efficacy (% control) of the single compounds and mixtures was calculated by comparing the disease rating in the treatment with the one of the untreated control. The compounds were also assessed for their plant compatibility by recording symptoms like necrosis, chlorosis and stunting. The results have been described for the compound of formula (I-1) in Table J.

Spodoptera litura = assay: Diet incorporation method against Spodoptera litura (Example B); conditions: 96 h; for pest or weed control at 10 ppm: read-out: Observed Efficacy (%), 10 ppm
From the text: as §1
The diet incorporation method was used, in which semi-synthetic diet was incorporated into the test solution consisting either of the single compound or respective compound combinations, when the temperature was approximately 50° C. in the bioassay containers, then stirred thoroughly for proper mixing and allowed to cool for 30 min. The solidified diet was cut into equal pieces, and then each piece was transferred into one cell of the bio-assay trays. A single starved third instar larva was released into each of these cells of the bio-assay trays and the tray was covered with a lid. The bio-assay trays were kept under laboratory conditions at a temperature of 25° C. and relative humidity of 70%. Observations on dead, moribund and live larvae were recorded 96 h after the release. Percent mortality was calculated by combining dead and moribund larvae and comparing the result with the one of the untreated control. The results are shown for the compound of formula (I-1) in Table B.

Erysiphe cichoracearum = assay: Preventive glasshouse test against Erysiphe cichoracearum in cucumber (Example K); conditions: 50 ppm, preventive spray
From the text: as §1
The single compounds or the respective compound combinations were dissolved in 2% dimethyl sulfoxide/acetone and then mixed with water containing emulsifier to a calibrated spray volume of 50 mL. The test solutions were poured into spray bottles for further applications. […]
A visual assessment of the performance of the compounds and the respective compound combinations was carried out by rating the disease severity (0-100% scale) on treated plants 3, 7, 10 and 15 days after application. Efficacy (% control) of the single compounds or compound combinations was calculated by comparing the disease rating in the treatment with the one of the untreated control. The compounds were also assessed for their plant compatibility by recording symptoms like necrosis, chlorosis and stunting. […]

Alternaria solani = assay: Preventive glasshouse test against Alternaria solani in tomato (Example G); conditions: 100 ppm, preventive spray
From the text: as §1, §2
To test the preventive activity, healthy young tomato plants, raised in the greenhouse, were sprayed with the active compound preparation at the stated application rates inside the spray cabinets using hollow cone nozzles. One day after treatment, the plants were inoculated with a spore suspension containing 0.24×10^6 Alternaria solani inoculum and 2% Malt. The inoculated plants were then kept in a greenhouse chamber at a temperature of 22-24° C. and 90-95% relative humidity for disease expression.
as §3, with “G.” for “J.”

[2] = Plutella xylostella, foliar, read-out: Observed Efficacy (%)
[3] = Helicoverpa armigera, read-out: Observed Efficacy (%)

Which pest or weed control at 1 ppm (Plutella xylostella; [2]) does the source give for `CN1COCN(Cc2cnc(Cl)s2)/C1=N\[N+](=O)[O-]` [Thiamethoxam, thiamethoxam] here?
The pest or weed control at 1 ppm was 12.5%.

Which pest or weed control at 100 ppm (Helicoverpa armigera; Helicoverpa armigera, 100 ppm, read-out: Observed Efficacy (%)) does the source give for `N#Cc1c[nH]cc1-c1cccc2c1OC(F)(F)O2` [Fludioxonil, fludioxonil] here?
Its pest or weed control at 100 ppm is 0%.

With spinetoram as the compound, how does the “Observed Efficacy (%)” value (Helicoverpa armigera; 2.5 ppm) read?
The value was 87.5%.

What does the source list for `CO/C=C(/C(=O)OC)c1ccccc1Oc1cc(Oc2ccccc2C#N)ncn1` [Azoxystrobin, azoxystrobin]?
Observed Efficacy (%) (Phakopsora pachyrhizi; 0.1 ppm): 39%; Observed Efficacy (%) ([1]; 0.05 ppm): 12%; Observed Efficacy (%) ([1]; 0.1 ppm): 24%

`CCS(=O)(=O)c1cccnc1-c1nc2cc(S(=O)(=O)C(F)(F)F)ccc2o1` [Oxazosulfyl, 2-[3-(ethanesulfonyl)pyridin-2-yl]-5-[trifluoro(methanesulfonyl)]-1,3-benzoxazole] was tested. Which pest or weed control at 100 ppm (Spodoptera litura; 100 ppm, read-out: Observed Efficacy (%)) did it give?
The pest or weed control at 100 ppm was 0%.

And the pest or weed control at 0.1 ppm (Plutella xylostella; [2])?
The pest or weed control at 0.1 ppm was 0%.

How did the “Observed Efficacy (%)” value (Plutella xylostella; 0.001 ppm) turn out when `N#Cc1ccc(CC(=NNC(=O)Nc2ccc(OC(F)(F)F)cc2)c2cccc(C(F)(F)F)c2)cc1` (mixture of isomers) [Metaflumizone, metaflumizone] was run?
The value was 12.5%.

`O=[N+]([O-])NC1=NCCN1Cc1ccc(Cl)nc1` [Imidacloprid, imidacloprid] was tested. Which pest or weed control at 50 ppm (Spodoptera litura; read-out: Observed Efficacy (%), 50 ppm) did it give?
Its pest or weed control at 50 ppm is 25%.

And the pest or weed control at 0.1 ppm (Plutella xylostella; [2])?
Its pest or weed control at 0.1 ppm is 0%.

Which “Observed Efficacy (%)” value (Helicoverpa armigera; 0.13 ppm) does the source give for `CON=CNC(=O)c1ccc(C2=NOC(c3cc(Cl)cc(Cl)c3)(C(F)(F)F)C2)cc1C` (stereo not shown) [Fluxametamide, fluxametamide] here?
The value was 12.5%.

What about the “Observed Efficacy (%)” value (Helicoverpa armigera; 0.28 ppm) of the same compound?
The value was 12.5%.

What does the source list for `CCOCn1c(-c2ccc(Cl)cc2)c(C#N)c(Br)c1C(F)(F)F` [Chlorfenapyr, chlorfenapyr]?
pest or weed control at 0.15 ppm (Plutella xylostella; Plutella xylostella, foliar, 0.15 ppm, read-out: Observed Efficacy (%)): 62.5%; pest or weed control at 0.2 ppm (Plutella xylostella; Plutella xylostella, foliar, 0.2 ppm, read-out: Observed Efficacy (%)): 75%

For `FC(F)(F)c1ccc(OCCCOc2c(Cl)cc(OCC=C(Cl)Cl)cc2Cl)nc1` [Pyridalyl, pyridalyl], which pest or weed control at 0.002 ppm (Plutella xylostella; Plutella xylostella, foliar, 0.002 ppm, read-out: Observed Efficacy (%)) is on record?
Its pest or weed control at 0.002 ppm is 50%.

For `CC1=NNC(=O)N(/N=C/c2cccnc2)C1` [Pymetrozine, pymetrozine], which pest or weed control at 0.01 ppm (Plutella xylostella; Plutella xylostella, foliar, 0.01 ppm, read-out: Observed Efficacy (%)) is on record?
Its pest or weed control at 0.01 ppm is 0%.

What about the pest or weed control at 0.05 ppm (Plutella xylostella; [2]) of the same compound?
The pest or weed control at 0.05 ppm was 0%.

`N#Cc1nn(-c2c(Cl)cc(C(F)(F)F)cc2Cl)c(N)c1[S+]([O-])C(F)(F)F` (stereo not shown) [Fipronil, fipronil] was tested. Which pest or weed control at 0.005 ppm (Plutella xylostella; Plutella xylostella, foliar, 0.005 ppm, read-out: Observed Efficacy (%)) did it give?
Its pest or weed control at 0.005 ppm is 50%.

For `CC(COc1ccc(Oc2ccccc2)cc1)Oc1ccccn1` (stereo not shown) [Pyriproxyfen], which pest or weed control at 0.05 ppm (Plutella xylostella; [2]) is on record?
The pest or weed control at 0.05 ppm was 12.5%.

With `COC(=O)NC(=S)Nc1ccccc1NC(=S)NC(=O)OC` [Thiophanate-methyl, thiophanate-methyl] as the compound, how does the “Observed Efficacy (%)” value (Erysiphe cichoracearum) read?
Its value is 29%.

Which results are given for `COC(=O)N(OC)c1ccccc1COc1ccn(-c2ccc(Cl)cc2)n1` [Pyraclostrobin, pyraclostrobin]?
pest or weed control at 200 ppm (Spodoptera litura; read-out: Observed Efficacy (%), 200 ppm): 0%; pest or weed control at 500 ppm (Spodoptera litura; read-out: Observed Efficacy (%), 500 ppm): 0%; pest or weed control at 200 ppm (Helicoverpa armigera; [3]): 0%; pest or weed control at 500 ppm (Helicoverpa armigera; Helicoverpa armigera, 500 ppm, read-out: Observed Efficacy (%)): 0%

`C=CCOC1=NS(=O)(=O)c2ccccc21` [Probenazole, probenazole] was tested. Which pest or weed control at 200 ppm (Helicoverpa armigera; [3]) did it give?
Its pest or weed control at 200 ppm is 12.5%.

What does the source list for `Cc1c(COC(=O)[C@@H]2[C@H](/C=C(\Cl)C(F)(F)F)C2(C)C)cccc1-c1ccccc1` (racemic) [Bifenthrin, bifenthrin]?
pest or weed control at 10 ppm (Spodoptera litura): 12.5%; pest or weed control at 20 ppm (Helicoverpa armigera; Helicoverpa armigera, 20 ppm, read-out: Observed Efficacy (%)): 75%; pest or weed control at 1 ppm (Plutella xylostella; [2]): 25%

For `COCC(=O)N(c1c(C)cccc1C)C(C)C(=O)OC` (stereo not shown) [Metalaxyl, metalaxyl], which pest or weed control at 100 ppm (Spodoptera litura; read-out: Observed Efficacy (%), 100 ppm) is on record?
The pest or weed control at 100 ppm was 0%.

And the “Observed Efficacy (%)” value (Alternaria solani)?
The value was 17%.

For `CN/C(=N\[N+](=O)[O-])NCc1cnc(Cl)s1` [Clothianidin, clothianidin], which pest or weed control at 10 ppm (Spodoptera litura) is on record?
Its pest or weed control at 10 ppm is 0%.

And the pest or weed control at 0.1 ppm (Plutella xylostella; [2])?
The pest or weed control at 0.1 ppm was 0%.

Which results are given for `CCc1nc2cc(C)c(Oc3ccc(OC(F)(F)F)cc3)cc2c(OC(=O)OC)c1C` [Flometoquin, flometoquin]?
Observed Efficacy (%) (Plutella xylostella; 0.001 ppm): 0%; Observed Efficacy (%) (Plutella xylostella; 0.005 ppm): 62.5%

How did the “Observed Efficacy (%)” value (Phakopsora pachyrhizi; 0.05 ppm) turn out when `Cn1cc(C(=O)Nc2ccccc2-c2cc(F)c(F)c(F)c2)c(C(F)F)n1` [Fluxapyroxad, fluxapyroxad] was run?
The value was 41%.

`CCN(C(=O)CCSCCC(F)(F)F)c1cn(-c2cccnc2)nc1Cl` [Tyclopyrazoflor] was tested. Which “Observed Efficacy (%)” value (Helicoverpa armigera; 100 ppm) did it give?
Its value is 12.5%.
